Assay results: patent publication EP0007206A1, “Phenethanolamines, their formulations, preparation and use” (ELI LILLY AND COMPANY, priority 1978, dated 1980)

What was measured:
Assay type in all cases: in vivo, mice
[1] = system: 755 adenocarcinoma; assay: combination chemotherapy with 5-fluorouracil, implanted 755 adenocarcinoma (Table 6); conditions: for number of tumor free animals out of those still living / average tumor size: 5 FU 8 mg./kg. i.p. days 5, 9, 13, B 7.5 mg./kg. s.c. twice daily days 5 through 14
Protocol: (§1) In a typical experiment, laboratory mice were infected by a subcutaneous implantation of a tumor tissue in the axillary region of the body. The implantations were accomplished by means of a trocar. Initial tumor size in each animal generally was about 2 square millimeters. Tumor size was then measured periodically as length and width in mm. Typical tumor systems implanted included adenocarcinoma 755, an Aly Fast strain of bronchiogenic carcinoma, and mecca lymphosarcoma. Oncolytic agents utilized in the tests to determine the potentiating effects of the compounds of the invention.include cytoxan, 5-fluorouracil, vindesine, methotrexate and 6-mercaptopurine. […] Ten infected animals normally were selected to receive a known oncolytic agent. Another ten infected animals were administered the known oncolytic agent in addition to a compound of this invention.
5-Fluorouracil is essentially ineffective against the 755 adenocarcinoma in mice. […] Mice were infected by an implantation of the 755 adenocarcinoma. Thirty animals were given placebo, ten were given 5-fluorouracil alone, and ten were given N-(2-phenyl-2-hydroxyethyl)-1,1-dimethyl-3-(4-aminocarbonylphenyl)propylaminium chloride in combination with 5-fluorouracil. Treatment in all cases was started five days after implantation of the tumor system. 5-Fluorouracil was administered intraperitoneally at the rate of 8 mg./kg. given once on days 5, 9 and 13 following implantation, both to the animals receiving 5-FU alone and the combination. The animals undergoing combination chemotherapy received, in addition to 5-FU, N-(2-phenyl-2-hydroxyethyl)-l,l-dimethyl-3-(4-aminocarbonylphenyl)propylaminium chloride (compound B) at the rate of 7.5 mg./kg. given subcutaneously twice daily on days 5 through 14 of the test. Column I under each of the days of measurement reports the average tumor size in square millimeters of each test group. Column II under each of the days of measurement is the number of tumor free animals out of those still living on that day.

[2] = system: mecca- lymphosarcoma; assay: combination chemotherapy with 5 FU, implanted mecca lymphosarcoma (Table 3); conditions: 5 FU 4 mg./kg. i.p. once daily, A 18.75 mg./kg. s.c. twice daily
Protocol: (§2) In a typical experiment, laboratory mice were infected by a subcutaneous implantation of a tumor tissue in the axillary region of the body. The implantations were accomplished by means of a trocar. Initial tumor size in each animal generally was about 2 square millimeters. Tumor size was then measured periodically as length and width in mm. Typical tumor systems implanted included adenocarcinoma 755, an Aly Fast strain of bronchiogenic carcinoma, and mecca lymphosarcoma. Oncolytic agents utilized in the tests to determine the potentiating effects of the compounds of the invention.include cytoxan, 5-fluorouracil, vindesine, methotrexate and 6-mercaptopurine. Twenty or thirty infected animals generally were selected as controls and received placebo. Ten infected animals normally were selected to receive a known oncolytic agent. Another ten infected animals were administered the known oncolytic agent in addition to a compound of this invention.
A similar study was carried out to determine the synergistic effect of N-(2-phenyl-2-hydroxyethyl)-1,1-dimethyl-3-(4-hydroxyphenyl)-propylaminium bromide (compound A) on the antineoplastic activity of 5-fluorouracil (designated in Table 3 as 5 FU) in the treatment of a mecca- lymphosarcoma in mice. 5-Fluorouracil was administered intraperitoneally at the rate of 4 mg./kg. once each day to a group of five test animals. Another group of five infected animals received the combination of 4 mg./kg. of 5 FU given intraperitoneally once each day plus the potentiating agent (compound A) given subcutaneously twice each day at the dose of 18.75 mg./kg. A group of 20 infected animals received placebo. Measurements of average tumor size for each group of animals were made on the tenth, fourteenth and eighteenth day following initial tumor implantation and dosing. Column I under each of the reported days gives the average tumor size in square millimeters. Column II under each of the reported days gives the number of surviving animals out of each test group. […] Moreover, after eighteen days of treatment, three of the five animals receiving combination chemotherapy were still alive, whereas all of the control animals and those receiving 5-FU alone had died.

[3] = system: adenocarcinoma tumor resembling human breast tumor (the 755 tumor system); assay: combination chemotherapy with 6 MP, implanted 755 adenocarcinoma (Table 2); conditions: 6 MP 1.5 mg./kg. orally once daily, A 3.75 mg./kg. s.c. twice daily
Protocol: as §1
According to the test, 6 MP was administered alone to 10 mice orally at the dose of 1.5 mg./kg. once each day for twenty-eight days. Another group of ten mice received 6 MP daily (1.5 mg./kg.) plus the compound of this invention (A), which was administered subcutaneously at the rate of 3.75 mg./kg. twice daily for twenty-eight days. […] The average tumor size for the test group on the indicated day of measurement is reported in column I under each of the reported days of measurement. In column II of each of the reported days of measurement is recorded the number of surviving animals out of the particular test group.

[4] = system: 755 adenocarcinoma; assay: combination chemotherapy with 6-mercaptopurine, implanted 755 adenocarcinoma (Table 7); conditions: by day 29; 6 MP 4 mg./kg. i.p. once per day on days 5, 9, 13
Protocol: as §2
Mice were infected by implantation of a 755 adenocarcinoma. Thirty mice were held as controls and received only placebo. Ten mice were administered 4 mg./kg. of 6-mercaptopurine (6 MP) intraperitoneally once per day on the fifth, ninth and thirteenth days following implantation. […]

O=c1[nH]cc(F)c(=O)[nH]1 [5 FU, 5-fluorouracil]
number of tumor free animals out of those still living ([1]; Day 0): 0/10 | average tumor size ([1]; Day 5): 95 square millimeters | number of tumor free animals out of those still living ([1]; Day 5): 0/10 | average tumor size ([1]; Day 12): 350 square millimeters | number of tumor free animals out of those still living ([1]; Day 12): 0/10 | average tumor size ([1]; Day 17): 630 square millimeters | number of tumor free animals out of those still living ([1]; Day 17): 0/9 | average tumor size ([1]; Day 23): 680 square millimeters | number of tumor free animals out of those still living ([1]; Day 23): 0/6 | number of tumor free animals out of those still living ([1]; Day 29): 0/0 | number of tumor free animals out of those still living ([1]; Day 73): 0/0 | effectiveness in the treatment of the 755 adenocarcinoma ([1]; mice, summary in words of Table 6): ineffective | number of surviving animals out of test group ([2]; Day 0): 5/5 | average tumor size ([2]; Day 10): 490 square millimeters | number of surviving animals out of test group ([2]; Day 10): 5/5 | average tumor size ([2]; Day 14): 490 square millimeters | number of surviving animals out of test group ([2]; Day 14): 4/5 | number of surviving animals out of test group ([2]; Day 18): 0/5

Sc1ncnc2nc[nH]c12 [6 MP, 6-mercaptopurine]
number of surviving animals out of test group ([3]; Day 0): 10/10 | average tumor size ([3]; Day 9): 100 square millimeters | number of surviving animals out of test group ([3]; Day 9): 9/10 | average tumor size ([3]; Day 17): 340 square millimeters | number of surviving animals out of test group ([3]; Day 17): 7/10 | average tumor size ([3]; Day 23): 680 square millimeters | number of surviving animals out of test group ([3]; Day 23): 6/10 | average tumor size ([3]; Day 28): 1050 square millimeters | number of surviving animals out of test group ([3]; Day 28): 1/10 | animals that had died out of ten [4]: All ten
